Assay results published in patent US20260063641A1, “COMPOSITIONS AND METHODS FOR LABELING AND DETECTING BINDING PARTNERS” (UNIVERSITY OF UTAH RESEARCH FOUNDATION, priority 2022, published 2026).

Legend:
[1] = molecular target: T1, BRD4 (Homo sapiens, UniProt O60885); test: BioTAC proximity labeling, streptavidin pulldown and western blot for BRD4; type: cell-based; conditions: HEK293 transiently transfected with miniTurbo-FKBP12F36V, 100 μM biotin, 30 min time point
T1 construct: host or cells: HEK293 transiently transfected with the BioTAC plasmid
Procedure: Next bifunctional molecule guided-proximity labeling experiments were performed using validated reagents. HEK293 cells transiently transfected with mTurbo-FKBP12F36V were treated with 100 μM biotin, 1 μM bifunctional (+)-JQ1 recruiters, and variable concentrations of free (+)-JQ1 to off-compete the bifunctional molecule and rescue biotinylation. Biotinylated proteins were isolated from cell lysates via streptavidin bead pulldown and analyzed by western blot for BRD4, a primary target of (+)-JQ1.
0.6 million HEK293 cells were plated into wells containing 1 mL of complete media (DMEM, 10% FBS, 1% pen/strep) and incubated overnight. Cells were transiently transfected with 100 μL of OptiMEM media containing 1 μg of BioTAC plasmid and 3 μL of TransIT-2020 transfection reagent (Mirus, MIR5400) for 24 hr. Following a media change, cells were pre-treated with parental molecules or DMSO for 10 min, then treated with bifunctional compound for 10 min, and finally labeled in 100 μM biotin for the indicated time. Cells were washed twice with DPBS then harvested into 1.5 mL tubes. […] Protein concentration was determined by BCA assay (Thermo, 23225), then 100 ug protein was rotated overnight at 4° C. with 8 μL of streptavidin magnetic beads (Thermo, 88817) that had been prewashed twice in RIPA lysis buffer. […]

[2] = molecular target: T2, NLuc-FKBP12F36V (Homo sapiens, UniProt P62942, F37V); test: FKBP12F36V cellular target engagement assay (competition with dTAG-13, NLuc/FLuc signal); type: cell-based; conditions: mean±S.D. of n=3 technical replicates, FIG. 4D-F
T2 construct: expressed in transfected cells
Excerpt: This method, named the biotin targeting chimera (BioTAC) system, uses bifunctional molecules composed of a compound-of-interest linked to selective FKBP12F36V recruiter orthoAP1867, to recruit a ligandable proximity labeling enzyme (mTurbo-FKBP12F36V) to compound-bound complexes enabling their biotinylation and subsequent affinity purification (FIG. TA-B). To benchmark the BioTAC system for accurate detection of the direct targets of ligands the well-characterized BET protein inhibitor (+)-JQ1, which potently binds BRD2, BRD3 and BRD4 (as well as the testes-specific BET protein BRDT), was selected as a test case. A series of bifunctional molecules consisting of (+)-JQ1 conjugated to […] were synthesized via a variable linker (FIG. 1B, FIG. 4A-C). (+)-JQ1-bifunctional molecule cell permeability was measured using an FKBP12F36V cellular target engagement assay adapted from Nabet et. al Nat Commun 11, 4687 (2020). Briefly, FKBP12F36V binding molecules compete with an FKBP12F36V targeting PROTAC (dTAG-13), for NLuc-FKBP12F36V occupancy, rescuing degradation and resulting in an increase in NLuc/FLuc (control) signal relative to DMSO-treated cells. All synthesized compounds were comparably cell permeable (FIG. 4D-E).

T2 sequence (P62942 2-108 F37V limits assumed): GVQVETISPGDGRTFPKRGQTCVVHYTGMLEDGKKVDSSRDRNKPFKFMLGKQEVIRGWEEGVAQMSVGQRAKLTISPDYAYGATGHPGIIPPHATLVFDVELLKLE

Structure (SMILES): CC[C@H](C(=O)N1CCCC[C@H]1C(=O)O[C@H](CCc1ccc(OC)c(OC)c1)c1ccccc1OCC(=O)NCCOCCOCCOCCNC(=O)C[C@@H]1N=C(c2ccc(Cl)cc2)c2c(sc(C)c2C)-n2c(C)nnc21)c1cc(OC)c(OC)c(OC)c1 [Cpd1, (R)-1-(2-((17-((S)-4-(4-Chlorophenyl)-2,3,9-trimethyl-6H-thieno[3,2-f][1,2,4]triazolo[4,3-a][1,4]diazepin-6-yl)-2,16-dioxo-6,9,12-trioxa-3,15-diazaheptadecyl)oxy)phenyl)-3-(3,4-dimethoxyphenyl)propyl (S)-1-((S)-2-(3,4,5-trimethoxyphenyl)butanoyl)piperidine-2-carboxylate]
- BRD4 labeling and rescue (immunoblot of streptavidin pulldown) [1]: high BRD4-labeling and rescue
- competitive displacement of dTAG-13 (FKBP12F36V cellular target engagement) [2]: competitive displacement of dTAG-13
